The text below walks through data of ChEMBL document CHEMBL3120075 (J Med Chem, 2014).

Series [1] concerns Hepatitis C virus. The series is described as follows: Ratio of EC50 for HCV genotype 1a H77 infected in human HuH7 cells in presence of 10% BSA to EC50 for HCV genotype 1a H77 infected in human HuH7 cells. Type of series: functional, Hepacivirus hominis, Huh-7.
Series [2] deals with Hepatitis C virus. The series is described as follows: Ratio of EC50 for HCV genotype 1a H77 infected in human HuH7 cells in presence of human serum to EC50 for HCV genotype 1a H77 infected in human HuH7 cells. It is filed as functional, Hepacivirus hominis, Huh-7.
Series [3] concerns Hepatitis C virus. Description: Antiviral activity against HCV genotype 1a H77 infected in human HuH7 cells assessed as inhibition of viral RNA replication after 3 days by renilla luciferase reporter gene assay in presence of 10% BSA. Type of series: functional, organism-based, Hepacivirus hominis. The following applies: genotype 1a H77, Huh-7, 72 h. On the technique in general: Reporter assays use an easily measured gene product as a stand-in for the process of interest.

The test system of series [4] is Hepatitis C virus. Description: Antiviral activity against HCV genotype 1a H77 infected in human HuH7 cells assessed as inhibition of viral RNA replication after 3 days by renilla luciferase reporter gene assay in presence of human serum. Type of series: functional, organism-based, Hepacivirus hominis. Particulars: genotype 1a H77, Huh-7, 72 h.
Series [5] concerns Hepatitis C virus. Description: Antiviral activity against HCV genotype 1b Con1 infected in human HuH7 cells assessed as inhibition of viral RNA replication after 3 days by renilla luciferase reporter gene assay. The following applies: isolate Con1, Huh-7, 72 h. It is filed as functional, organism-based, Hepacivirus hominis.
Series [6] deals with Hepatitis C virus. Description: Antiviral activity against HCV genotype 1a H77 infected in human HuH7 cells assessed as inhibition of viral RNA replication after 3 days by renilla luciferase reporter gene assay. Type of series: functional, organism-based, Hepacivirus hominis. The following applies: genotype 1a H77, Huh-7, 72 h.
The nature of series [7]: Ratio of EC50 for HCV genotype 1a to EC50 for HCV genotype 1b. Type of series: functional.
The nature of series [8]: Mean residence time in beagle dog at 0.2 mg/kg, iv. It is filed as ADME, organism-based, Canis lupus familiaris. More on the design: dose 0.2 mg/kg, route intravenous. Particulars: in vivo.
Series [9] is described as follows: Half life in beagle dog at 0.2 mg/kg, iv. More on the design: dose 0.2 mg/kg, route intravenous. Type of series: ADME, organism-based, Canis lupus familiaris. The following applies: in vivo.
Series [10] can be described thus: Volume of distribution at steady state in beagle dog at 0.2 mg/kg, iv. It is filed as ADME, organism-based, Canis lupus familiaris. Also noted: dose 0.2 mg/kg, route intravenous. The following applies: in vivo, read-out: Vdss.
The nature of series [11]: Clearance in beagle dog at 0.2 mg/kg, iv. It is filed as ADME, organism-based, Canis lupus familiaris. Also noted: dose 0.2 mg/kg, route intravenous. The following applies: in vivo.
Series [12] in a line: Oral bioavailability in Sprague-Dawley rat at 2 mg/kg. Type of series: ADME, organism-based. The following applies: in vivo.
A short description of series [13]: Mean residence time in Sprague-Dawley rat at 1 mg/kg, iv. Also noted: dose 1 mg/kg, route intravenous. Type of series: ADME, organism-based. The following applies: in vivo.
Series [14] can be described thus: Half life in Sprague-Dawley rat at 1 mg/kg, iv. Type of series: ADME, organism-based. Also noted: dose 1 mg/kg, route intravenous. Particulars: in vivo.
Series [15] in a line: Volume of distribution at steady state in Sprague-Dawley rat at 1 mg/kg, iv. Type of series: ADME, organism-based. Also noted: dose 1 mg/kg, route intravenous. Particulars: in vivo, read-out: Vdss.
A short description of series [16]: Clearance in Sprague-Dawley rat at 1 mg/kg, iv. Type of series: ADME, organism-based. Also noted: dose 1 mg/kg, route intravenous. The following applies: in vivo.

`COC(=O)N[C@H](C(=O)N1CCC[C@H]1c1ncc(-c2ccc3c(c2)C(F)(F)c2cc(-c4ccc5nc([C@@H]6[C@H]7CC[C@H](C7)N6C(=O)[C@@H](NC(=O)OC)C(C)C)[nH]c5c4)ccc2-3)[nH]1)C(C)C`: the “Ratio EC50” value in the series with Hepatitis C virus [1] and with Hepatitis C virus [2] was 14 throughout. The half-maximal effective concentration (EC50) (as a rule, the concentration at which the effect is half-maximal) in the series with Hepatitis C virus [3] was found to be 0.784 nM; in the series with Hepatitis C virus [4] it was 0.784 nM; with Hepatitis C virus [5] it was 0.004 nM; in the series on Hepatitis C virus [6], 0.056 nM.
Regarding `Cc1ccc(O)c(-c2nn(C)cc2C#Cc2ccc(NC(=O)[C@@H]3COCCN3C(=O)[C@H](NC(=O)OC(C)(C)C)c3ccccc3)cc2)c1`, the 50% effective concentration (EC50) in the series with Hepatitis C virus [5] is under 1000 nM. In addition, the Ratio EC50 in series [7] worked out at 1000.
As to `C[C@H](NC(=O)OCc1ccccc1)C(=O)Nc1cccc(C2S/C(=N\c3cccc(F)c3)N(Cc3ccco3)C2=O)c1` (stereo partly drawn), the concentration giving a half-maximal response (EC50) in the series on Hepatitis C virus [5] came out at 580 nM. For the same molecule, the Ratio EC50 in series [7] turned out to be 1000.
With `O=C(Nc1ccncc1)c1ccc(-c2csc(NC(=O)[C@@H]3CCCN3C(=O)OCc3ccccc3)n2)cc1`, the 50% effective concentration (EC50) with Hepatitis C virus [5] is 80 nM. The Ratio EC50 in series [7] is 1000.
For the molecule `COC(=O)N[C@H](C(=O)N1CCC[C@H]1c1ncc(-c2ccc3c(c2)C(F)(F)c2cc(-c4ccc5nc([C@@H]6CCCN6C(=O)[C@@H](NC(=O)OC)C(C)C)[nH]c5c4)ccc2-3)[nH]1)C(C)C`, the mean residence time (MRT) – broadly, the average time that molecules of a dose stay in the body – in series [8] was found to be 3.69 h; in [13], 2.21 h. In addition, the figures for the half-life in [9] and in [14] were 2.63 h and 1.83 h, respectively. The Vd in [10] was determined as 1.96 L/kg; in series [15], 0.93 L/kg. In addition, the clearance (commonly a measure of how efficiently the substance is removed, as volume per time) in [11] was 8.83 mL/min/kg; in series [16], 7 mL/min/kg. The bioavailability (as a rule, the share of a dose that reaches the circulation, judged against a reference dose that is usually intravenous) in series [12] was determined as 36.7%. Further, the concentration giving a half-maximal response (EC50) in the series with Hepatitis C virus [5] stood at 0.003 nM; in the series on Hepatitis C virus [6] it was 0.04 nM.
